Data published in ChEMBL document CHEMBL5236591, “Targeting Gatekeeper Mutations for Kinase Drug Discovery” (J Med Chem, 2022).

Key:
BaF3 [1] = test: cells; settings: Mus musculus
Description: Antiproliferative activity against mouse BaF3 cells harboring TRKA F589L mutant assessed as cell growth inhibition

BaF3 [2] = test: Antiproliferative activity against mouse BaF3 cells harboring FLT3 F691L mutant assessed as cell growth inhibition; type: functional, cell-based
BaF3 [3] = test: Antiproliferative activity against mouse BaF3 cells harboring FLT3 D835Y mutant assessed as cell growth inhibition; type: functional, cell-based
MOLM-14 = test: Antiproliferative activity against human MOLM-14 cells harboring FLT3 F691L mutant assessed as cell growth inhibition; type: functional, cell-based
[4] = molecular target: Mast/stem cell growth factor receptor Kit (Homo sapiens, UniProt P10721); test: Inhibition of wild type KIT (unknown origin)
Mast/stem cell growth factor receptor Kit, sequence (P10721 whole entry): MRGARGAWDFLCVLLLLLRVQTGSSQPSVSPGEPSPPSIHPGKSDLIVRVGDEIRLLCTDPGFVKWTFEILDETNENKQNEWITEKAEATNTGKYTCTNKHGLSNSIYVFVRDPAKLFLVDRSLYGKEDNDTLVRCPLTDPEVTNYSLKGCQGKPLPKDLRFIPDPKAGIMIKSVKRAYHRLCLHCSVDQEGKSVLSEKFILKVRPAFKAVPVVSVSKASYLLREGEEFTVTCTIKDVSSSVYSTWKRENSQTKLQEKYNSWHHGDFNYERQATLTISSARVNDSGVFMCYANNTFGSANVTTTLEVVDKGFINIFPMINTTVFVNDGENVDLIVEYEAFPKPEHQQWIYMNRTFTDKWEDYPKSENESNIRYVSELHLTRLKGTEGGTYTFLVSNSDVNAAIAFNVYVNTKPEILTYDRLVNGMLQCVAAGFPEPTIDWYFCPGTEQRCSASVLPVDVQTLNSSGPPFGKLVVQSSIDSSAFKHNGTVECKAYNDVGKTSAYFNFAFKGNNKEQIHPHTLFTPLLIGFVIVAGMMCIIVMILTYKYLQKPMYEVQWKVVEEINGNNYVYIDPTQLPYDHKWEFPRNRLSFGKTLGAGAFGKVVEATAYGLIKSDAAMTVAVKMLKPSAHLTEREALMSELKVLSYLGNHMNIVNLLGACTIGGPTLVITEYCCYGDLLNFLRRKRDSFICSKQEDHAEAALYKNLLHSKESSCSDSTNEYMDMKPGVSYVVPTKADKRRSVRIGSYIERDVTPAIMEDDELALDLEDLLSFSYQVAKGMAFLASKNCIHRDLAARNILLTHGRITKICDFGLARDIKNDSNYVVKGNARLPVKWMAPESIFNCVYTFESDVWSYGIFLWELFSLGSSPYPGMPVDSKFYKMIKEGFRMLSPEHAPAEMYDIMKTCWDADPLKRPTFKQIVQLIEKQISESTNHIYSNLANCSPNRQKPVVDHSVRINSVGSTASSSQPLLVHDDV

[5] = Antiproliferative activity against mouse 32D cells expressing FLT3-D835Y assessed as cell growth inhibition; type: functional
[6] = Antiproliferative activity against mouse 32D cells expressing FLT3-ITD-F691L assessed as cell growth inhibition; type: functional
[7] = Antiproliferative activity against mouse 32D cells expressing FLT3-ITD assessed as cell growth inhibition; type: functional
[8] = molecular target: Fibroblast growth factor receptor 4 (Mus musculus, UniProt Q03142); test: Inhibition of FGFR4 in mouse BaF3 cells; type: cell-based
Fibroblast growth factor receptor 4, sequence (Q03142 whole entry): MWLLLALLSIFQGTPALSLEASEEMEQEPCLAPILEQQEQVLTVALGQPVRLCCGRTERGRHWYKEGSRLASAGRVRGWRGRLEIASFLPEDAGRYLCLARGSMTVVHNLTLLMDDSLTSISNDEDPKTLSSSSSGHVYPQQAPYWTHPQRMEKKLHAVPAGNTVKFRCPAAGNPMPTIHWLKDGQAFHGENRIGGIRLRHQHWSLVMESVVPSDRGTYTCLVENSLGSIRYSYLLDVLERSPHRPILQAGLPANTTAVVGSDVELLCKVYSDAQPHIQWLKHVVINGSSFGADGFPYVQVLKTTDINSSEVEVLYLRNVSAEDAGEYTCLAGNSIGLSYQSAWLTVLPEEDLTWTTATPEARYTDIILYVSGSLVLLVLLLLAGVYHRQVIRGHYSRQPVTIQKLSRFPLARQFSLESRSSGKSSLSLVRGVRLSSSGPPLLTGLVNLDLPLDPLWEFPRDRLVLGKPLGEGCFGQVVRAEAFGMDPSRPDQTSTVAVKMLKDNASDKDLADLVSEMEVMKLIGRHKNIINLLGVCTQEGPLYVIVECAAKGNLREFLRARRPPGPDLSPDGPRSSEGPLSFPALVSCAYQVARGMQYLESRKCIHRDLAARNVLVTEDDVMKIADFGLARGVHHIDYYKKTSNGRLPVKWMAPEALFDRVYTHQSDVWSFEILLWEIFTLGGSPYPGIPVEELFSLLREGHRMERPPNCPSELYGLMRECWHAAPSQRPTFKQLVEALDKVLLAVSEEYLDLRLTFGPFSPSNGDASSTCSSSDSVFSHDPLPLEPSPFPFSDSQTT

C[C@@H]1CCc2ncc(F)cc2[C@H]2CCCN2c2ccn3ncc(c3n2)C(=O)N1 [SELITRECTINIB]
IC50 (BaF3 [1]): 27.8 nM

FC(F)(F)c1ccc(CNc2ccc(Cc3c[nH]c4ncc(Cl)cc34)cn2)cn1 [PEXIDARTINIB]
IC50 (BaF3 [2]): 97 nM
IC50 (BaF3 [3]): 4700 nM
IC50 (MOLM-14): 670 nM

COCCOc1cc(F)c2c(Nc3ccc(NC(=O)Cn4cc(C(C)C)nn4)cc3)ncnc2c1
IC50 [4]: 3 nM

CCCNc1nc(Nc2ccc(C#N)cc2)ncc1C#CCCCNC(=O)[C@H](C)N(C)C(=O)/C=C/CN(C)C [FF-10101]
GI50 [5]: 0.81 nM
GI50 [6]: 10 nM
GI50 [7]: 1.9 nM

C=CC(=O)Nc1cc(N2CCC(N3CCOCC3)CC2)cc(F)c1Nc1n[nH]c2ccc(O[C@H](C)c3c(Cl)cncc3Cl)cc12
IC50 [8]: 3.5 nM
